Values after ≈ are worked out from the molar mass of the structure shown. “Also recorded” adds a separate entry of the source.
Legend:
Format in all cases: physicochemical
XRPD under vacuum = experiment: XRPD under vacuum
Procedure: For vacuum experiments the samples were prepared and analysed in an Anton Paar chromed sample holder. The measurement parameters are as per the standard screening data collection method (detailed above), at 25° C. with no vacuum (I2). A vacuum of around 50 mbar was then applied and the sample measured every 5 min until the anhydrate pattern was obtained for three consecutive measurements (to ensure complete dehydration, up to sample I8). The vacuum was then released and the sample analysed every 5 min for 6 measurements (until sample I22). The sample was then reanalyzed by XRPD after 1 h to check for complete rehydration.
MH1 was analysed at 25° C. with no vacuum. A vacuum of around 50 mbar was then applied and the sample measured every 5 min until the anhydrate pattern was obtained for three consecutive measurements (to ensure complete dehydration). The vacuum was then released and the sample analysed every 5 min for 6 measurements before the front of the sample stage was removed.
(§1) Procedure: A second batch of MH2 material was prepared using the same procedure. This sample was then analysed by VTXRPD and by XRPD under vacuum.

[1] = Variable temperature XRPD (VT XRPD)
Procedure: For variable temperature (VT) experiments the samples were prepared and analysed in an Anton Paar chromed sample holder. A heating/cooling rate of 10° C./min was used with a 2 min isothermal hold before the measurement started. The measurement parameters are as per the standard screening data collection method (detailed above). Measurements were taken at the following temperatures: 25, 50, 75, 100, 160, and 25° C. The sample was then reanalyzed by XRPD after 1 h to check for complete rehydration.
MH1 was analysed at 25, 50, 75, 100, 160 and 25° C. (10° C./min heating rate and a 2 min wait before the measurement started) on the Empyrean. The sample was then reanalysed by XRPD after 10 and 20 min to check for rehydration.
as §1

[2] = Solubility repeat at pH 1.2 (reverse addition); conditions: pH 1.2 buffered media, pH maintained at 1.2, reverse addition
Procedure: Procedure: pH 1.2 buffered media (0.4 ml) was added to two separate 7 ml vials. For each compound, material was added in portions to the pH 1.2 media. After each addition of compound, the vial was vortex mixed and the pH and appearance was recorded. The samples were adjusted to pH 1.2 with 1M HCl to within 0.05 of the desired pH unit. This was repeated until no further material was available (˜400 mg for each form, which would give a maximum concentration of around 1000 mg/ml if no adjustment was required).

[3] = Thermodynamic aqueous solubility; conditions: thermodynamic from solid, water, 25° C.
Procedure: Aqueous solubility was determined by suspending sufficient compound in relevant media to give a maximum final concentration of ≥200 mg/ml of the parent freeform of the compound. The suspension was equilibrated at 25° C., on a Heidolph plate shaker set to 750 rpm for 24 hours. The pH of the saturated solution was then measured and the suspension filtered through a glass fibre C filter (particle retention 1.2 μm) and diluted appropriately. Quantitation was by HPLC with reference to a standard solution of approximately 0.15 mg/ml in DMSO. Different volumes of the standard, diluted and undiluted sample solutions were injected.
The solubility was calculated using the peak areas determined by integration of the peak found at the same retention time as the principal peak in the standard injection.
Analysis was performed on an Agilent HP1100 series system equipped with a diode array detector and using ChemStation software.

[4] = pH profiling solubility experiments; conditions: 25 °C, thermodynamic from solid
Procedure: Procedure: pH profiling solubility experiments were performed on MH1 and MH2. Solubility was determined in singlicate by suspending sufficient compound in relevant media (1.00 ml) to give a maximum final concentration as shown in the Table 17.
The suspensions were equilibrated at 25° C., on a Heidolph plate shaker set to 750 rpm for 24 hours. Samples were pH adjusted as required using 0.5M/1M HCl and 0.2M NaOH to within 0.1 of the desired pH unit (where possible). The pHs of the saturated solutions were measured (where applicable) and an appearance was recorded. The suspensions were filtered through a glass fibre C filter (particle retention […]) and diluted appropriately. Quantitation was by HPLC with reference to a standard solution of approximately 0.15 mg/ml in DMSO. Different volumes of the standard, diluted and undiluted sample solutions were injected. The solubility was calculated using the peak areas determined by integration of the peak found at the same retention time as the principal peak in the standard injection.

[5] = Drying investigation of the two hydrates (vacuum oven, XRPD and TGA)
Procedure: Procedure: MH1 and MH2 were placed in a vacuum oven at 50° C. and RT for 24 h. The samples were then analysed by TGA and XRPD immediately after removal and after 4 hours standing under ambient conditions.

[6] = Gravimetric Vapour Sorption (GVS)
Procedure: Sorption isotherms were obtained using a SMS DVS Intrinsic moisture sorption analyzer, controlled by DVS Intrinsic Control software. The sample temperature was maintained at 25° C. by the instrument controls. The humidity was controlled by mixing streams of dry and wet nitrogen, with a total flow rate of 200 ml/min. The relative humidity was measured by a calibrated Rotronic probe (dynamic range of 1.0-100% RH), located near the sample. The weight change, (mass relaxation) of the sample as a function of % RH was constantly monitored by a microbalance (accuracy ±0.005 mg).
Typically, 5-30 mg of sample was placed in a tared mesh stainless steel basket under ambient conditions. The sample was loaded and unloaded at 40% RH and 25° C. (typical room conditions). A moisture sorption isotherm was performed as outlined below (2 scans per complete cycle). The standard isotherm was performed at 25° C. at 10% RH intervals over a 0-90% RH range. Typically, a double cycle (4 scans) was carried out. Data analysis was carried out within Microsoft Excel using the DVS Analysis Suite.
The sample was recovered after completion of the isotherm and re-analyzed by XRPD.

## C[C@@H]1CN(Cc2ncccn2)C[C@H]1c1cn2c(C3CCOCC3)ncc2c(=O)[nH]1 [anhydrate, 6-[(3S,4S)-4-methyl-1-(pyrimidin-2-ylmethyl)pyrrolidin-3-yl]-3-tetrahydropyran-4-yl-7H-imidazo[1,5-a]pyrazin-8-one]
XRPD under vacuum; after vacuum XRPD, ambient air
  Conversion under ambient conditions: readily converts to MH1
[1]; after VT XRPD, standing at 25° C.
  Conversion under ambient conditions: readily converts to MH1

## C[C@@H]1CN(Cc2ncccn2)C[C@H]1c1cn2c(C3CCOCC3)ncc2c(=O)[nH]1 [MH2, 6-[(3S,4S)-4-methyl-1-(pyrimidin-2-ylmethyl)pyrrolidin-3-yl]-3-tetrahydropyran-4-yl-7H-imidazo[1,5-a]pyrazin-8-one]
XRPD under vacuum; data collected for 55 minutes after release
  Final XRPD pattern after vacuum released: mixture of AH and MH1
XRPD under vacuum; reanalyzed after 1 h
  Form by XRPD on reanalysis: complete rehydration to MH 1
XRPD under vacuum; vacuum of around 50 mbar, 25° C.
  Time under vacuum to conversion to the anhydrate by XRPD: 5 min
[2]
  Solubility at pH 1.2: >161 mg/ml
[3]
  solubility thermodynamic at 24 h: 36.5 mg/mL (≈ 92.5 mM)
[4]; pH 1.2 media, pH 1.2, simulated gastric fluid, media pH 1.2, 25° C., pH not maintained, final pH 5.02 (MH1-A), 6.63 (MH2-A)
  solubility at 24 h: > 275 mg/mL
[4]; pH 4.0 media, pH 4, aqueous buffer, media pH 4.0, 25° C.
  solubility at 24 h: > 99 mg/mL
[4]; pH 6.5 media, pH 6.5, aqueous buffer, media pH 6.5, 25° C.
  solubility at 24 h: > 147 mg/mL
[4]; pH 7.5 media, pH 7.5, aqueous buffer, media pH 7.5, 25° C.
  solubility at 24 h: 58 mg/mL (≈ 147 mM)
[5]; vacuum oven 50° C. 24 h, immediately after removal
  XRPD (T = 0, 50° C.): Matches MH1 and AH
[5]; vacuum oven 50° C. 24 h, immediately after removal, lost between 25 and 100° C.
  TGA (T = 0, 50° C.): 0.6% w/w lost between
[5]; vacuum oven 50° C. 24 h, then 4 hours ambient, lost between 25 and 100° C.
  TGA (T = 4 h, 50° C.): 1.9% w/w lost between
[5]; vacuum oven 50° C. 24 h, then 4 hours at ambient conditions
  XRPD (T = 4 h, 50° C.): Matches MH1
[5]; vacuum oven RT 24 h, immediately after removal
  XRPD (T = 0, RT): Matches MH1 and AH
[5]; vacuum oven RT 24 h, immediately after removal, lost between 25 and 100° C.
  TGA (T = 0, RT): 0.2% w/w lost between
[5]; vacuum oven RT 24 h, then 4 hours ambient, lost between 25 and 100° C.
  TGA (T = 4 h, RT): 1.9% w/w lost between
[5]; vacuum oven RT 24 h, then 4 hours at ambient conditions
  XRPD (T = 4 h, RT): Matches MH1
[6]; 40 to 90% RH, 25° C.
  GVS first sorption cycle uptake: lack of uptake; also recorded: First sorption cycle from 40 to 90% RH, no uptake
[6]; solid form after GVS
  XRPD post-GVS: rehydrated as MH1; also recorded: Crystalline - Matches MH1
[1]; 50° C.
  Form by VT XRPD upon heating: mixture of MH2 and AH
[1]; 75° C.
  Form by VT XRPD upon heating: complete conversion to AH
[1]; re-cooled to 25° C.
  Form by VT XRPD after cooling back: completely transformed into MH1
